Laboratory results as given in publication PMC10025185, “A continuous in silico learning strategy to identify safety liabilities in compounds used in the leather and textile industry” (Archives of Toxicology, 2023).
Read-outs that look alike come from different tables or passages of the source.

Key:
[1] = logKow as a measure of bioaccumulation, extracted from public databases; assay type: physicochemical; conditions: yes/no by logKow, REACH cut off 4,5
[2] = PBT assessment (persistence, bioaccumulation and FET toxicity combined, logical AND); conditions: persistent, bioaccumulative and toxic all positive
Protocol: (§1) Acute toxicity was determined using the OECD236 fish embryo acute toxicity (FET) test (OECD guidelines). To assess the PBT potentiality of the analysed compounds, persistence and the logKow as a measure of bioaccumulation were extracted from public databases (https://comptox.epa.gov/dashboard, and https://echa.europa.eu/es/information-on-chemicals).
Ecotoxicity of selected compounds was screened with the FET assay to determine acute toxicity and using available predictions of persistence and bioaccumulation.

[3] = set-up: method as in earlier work; conditions: experimental value; ref https://comptox.epa.gov/dashboard, https://echa.europa.eu/es/information-on-chemicals; cited from earlier work
[4] = system: androgen and oestrogen receptors; assay: ED assays of androgen and oestrogen receptors (overall experimental ED result); assay type: cell-based
Protocol: The transcriptional activation of androgen receptor (AR) assays was carried out by adapting the OECD protocol 458 (OECD [2020]).
MDA-MB-453 cells (8000 cells/well) expressing an AR luciferase reporter were seeded into 384 white plates (Greiner 781098) in culture medium (DMEM (ATCC), 10% foetal bovine serum (Sigma Aldrich), 1% penicillin–streptomycin (Sigma-Aldrich), 75 µg/ml geneticin (Gibco) and incubated overnight at 37 °C 5% CO2 and 95% humidity. After this time, the cell culture medium was discarded and replaced by assay medium (DMEM (ATCC), 0.1% foetal bovine serum (Sigma-Aldrich), and 1% penicillin–streptomycin (Sigma Aldrich)).
For studying a putative agonist effect, compounds were added to the assay plate using an Echo 550 acoustic liquid handler and incubated overnight at 37 °C 5% CO2 and 95% humidity. For studying the putative antagonist effect, compounds were added using an Echo 550 acoustic liquid handler and incubated for 15 min at 37 °C 5% CO2 and 95% humidity. Then, 1 nM 5α-dihydrotestosterone (DHT) was added, and the cell plate was incubated overnight at 37 °C, 5% CO2, and 95% humidity. After compound incubation, the cell medium was removed, 5 µl of lysis buffer 1X (Promega) was added, and the cell plate was incubated with agitation 15 min at room temperature. A freeze–thaw cycle of 10 min at −80 °C and room temperature was performed. Then 25 µl of luciferase assay reagent (Promega) was added and luminescence was determined on an EnSpire plate reader (Perkin Elmer). Data was fitted to a four-parameter sigmoidal model with Prism 5.1 (Graphpad, Inc).
The transcriptional activation of oestrogen receptor (ER) assay was carried out by adapting the OECD protocol 455 (OECD [2021]) and the method of Li et al. ([2013]).
ER luciferase reporter T47D cells (5000 cells/well) were seeded into 384 white plates (Greiner 781098) in culture medium (RPMI 1640 (Thermo Fisher Scientific 52400), 10% foetal bovine serum (Sigma Aldrich F9665), 1% penicillin–streptomycin (Sigma-Aldrich P0781), 75 µg/ml Geneticin (Gibco 10131)) and incubated overnight at 37 °C and 5% CO2. The following day, the cell culture medium was discarded and replaced by assay medium (RPMI 1640 (Thermo Fisher Scientific 52,400), 0.1% foetal bovine serum (Sigma Aldrich F9665), and 1% penicillin–streptomycin (Sigma Aldrich P0781).
The assay was performed as stated before for the AR assay using 17β-estradiol as agonist instead of DHT.
ED was assessed by transactivation in vitro assays to identify agonists and antagonists of the androgen and oestrogen receptors.
Also, the experimental group analysed the endocrine-disrupting activity for the CMR compounds.

[5] = system: thyroid system; conditions: cited from earlier work
[6] = system: zebrafish embryos; conditions: FET assay
Protocol: as §1

Clc1cc(Cl)c(Cl)c(Cl)c1Cl [1,2,3,4,5-Pentachlorobenzene]
Bioaccumulation [1]: Yes | Potential PBT ([2]; listed as Pentachlorobenzene): YES | Potential PBT ([2]; listed as pentachlorobenzene): potential PBT compounds | Bioaccumulation (logKow) [3]: 5.17

Clc1cc(Cl)c(Cl)c(Cl)c1 [1,2,3,5-Tetrachlorobenzene]
Bioaccumulation [1]: Yes | Experimental result ([4]; endocrine disruptor yes/no): No | Potential PBT [2]: YES | Potential PBT ([2]; listed as 1,2,3,5-tetrachlorobenzene): potential PBT compounds | endocrine-disrupting activity ([5]; ref Chu et al. [1983], den Besten et al. [1991]): thyroid system affection | Bioaccumulation (logKow) [3]: 4.61

Oc1cc(Cl)cc(Cl)c1Cl [2,3,5-Trichlorophenol]
Bioaccumulation [1]: No | Experimental result [4]: Yes | Potential PBT [2]: not a potential PBT compound | Bioaccumulation (logKow) [3]: 3.84

ClC1C(Cl)C(Cl)C(Cl)C(Cl)C1Cl (stereo not drawn) [(1α,2α,3α,4β,5α,6β)-1,2,3,4,5,6-Hexachlorocyclohexane]
Bioaccumulation [1]: No | acute toxicity [6]: highly toxic | Bioaccumulation (logKow) [3]: 3.95

O=C(O)C(F)(F)C(F)(F)C(F)(F)C(F)(F)F [Nonafluorovaleric acid]
Experimental result ([4]; endocrine disruptor yes/no): No | endocrine-disrupting activity ([5]; ref Coperchini et al. [2021], Croce et al. [2019]): thyroid system affection
